Read-outs that look alike come from different tables or passages of the source.
Target: SREBP-2 (Homo sapiens (Human), UniProt Q12772)
Assay: In vitro assay SREBP-2: PathHunter U2OS SREBP-2 Nuclear Translocation Cell Line, U18666A-stimulated
Type: cell-based
[1] = PathHunter U2OS SREBP-2 nuclear translocation cells, U18666A 10 μM, overnight (16 hours)

Row | Compound | IC50 [1] [nM] | IC50 [nM]
1 | CCC1(O)CCN(C(=O)CC[C@@H](C)[C@H]2CC[C@H]3[C@@H]4CC=C5C[C@@H](O)CC[C@]5(C)[C@H]4CC[C@]23C)CC1 [Example 129, (R)-1-(4-ethyl-4-hydroxypiperidin-1-yl)-4-((3S,8S,9S,10R,13R,14S,17R)-3-hydroxy-10,13-dimethyl-2,3,4,7,8,9,10,11,12,13,14,15,16,17-tetradecahydro-1H-cyclopenta[a]phenanthren-17-yl)pentan-1-one] | < 250 | 
2 | Cc1cccnc1CC[C@@H](C)[C@H]1CC[C@H]2[C@@H]3CC=C4C[C@@H](O)CC[C@]4(C)[C@H]3CC[C@]12C [Example 130, (3S,8S,9S,10R,13R,14S,17R)-10,13-dimethyl-17-((R)-4-(3-methylpyridin-2-yl)butan-2-yl)-2,3,4,7,8,9,10,11,12,13,14,15,16,17-tetradecahydro-1H-cyclopenta[a]phenanthren-3-ol] | < 250 | 
3 | C=CC1(O)CCN(C(=O)CC[C@@H](C)[C@H]2CC[C@H]3[C@@H]4CC=C5C[C@@H](O)CC[C@]5(C)[C@H]4CC[C@]23C)CC1 [Example 146, (R)-4-((3S,8S,9S,10R,13R,14S,17R)-3-hydroxy-10,13-dimethyl-2,3,4,7,8,9,10,11,12,13,14,15,16,17-tetradecahydro-1H-cyclopenta[a]phenanthren-17-yl)-1-(4-hydroxy-4-vinylpiperidin-1-yl) pentan-1-one] | < 250 | 
4 | C#CC1(O)CCN(C(=O)CC[C@@H](C)[C@H]2CC[C@H]3[C@@H]4CC=C5C[C@@H](O)CC[C@]5(C)[C@H]4CC[C@]23C)CC1 [Example 147, (R)-1-(4-ethynyl-4-hydroxypiperidin-1-yl)-4-((3S,8S,9S,10R,13R,14S,17R)-3-hydroxy-10,13-dimethyl-2,3,4,7,8,9,10,11,12,13,14,15,16,17-tetradecahydro-1H-cyclopenta[a]phenanthren-17-yl)pentan-1-one] | < 250 | 
5 | CCCC1(O)CCN(C(=O)CC[C@@H](C)[C@H]2CC[C@H]3[C@@H]4CC=C5C[C@@H](O)CC[C@]5(C)[C@H]4CC[C@]23C)CC1 [Example 148, (R)-4-((3S,8S,9S,10R,13R,14S,17R)-3-hydroxy-10,13-dimethyl-2,3,4,7,8,9,10,11,12,13,14,15,16,17-tetradecahydro-1H-cyclopenta[a]phenanthren-17-yl)-1-(4-hydroxy-4-propylpiperidin-1-yl) pentan-1-one] | < 250 | 
6 | CC(C)C1(O)CCN(C(=O)CC[C@@H](C)[C@H]2CC[C@H]3[C@@H]4CC=C5C[C@@H](O)CC[C@]5(C)[C@H]4CC[C@]23C)CC1 [Example 149, (R)-4-((3S,8S,9S,10R,13R,14S,17R)-3-hydroxy-10,13-dimethyl-2,3,4,7,8,9,10,11,12,13,14,15,16,17-tetradecahydro-1H-cyclopenta[a]phenanthren-17-yl)-1-(4-hydroxy-4-isopropylpiperidin-1-yl) pentan-1-one] | < 250 | 
7 | C[C@H](CCC(=O)N1CCC(O)(CO)CC1)[C@H]1CC[C@H]2[C@@H]3CC=C4C[C@@H](O)CC[C@]4(C)[C@H]3CC[C@]12C [Example 150, (R)-4-((3S,8S,9S,10R,13R,14S,17R)-3-hydroxy-10,13-dimethyl-2,3,4,7,8,9,10,11,12,13,14,15,16,17-tetradecahydro-1H-cyclopenta[a]phenanthren-17-yl)-1-(4-hydroxy-4-(hydroxymethyl)piperidin-1-yl)pentan-1-one] | < 250 | 
8 | C[C@H](CCC(=O)N1CCC(O)(CC(F)(F)F)CC1)[C@H]1CC[C@H]2[C@@H]3CC=C4C[C@@H](O)CC[C@]4(C)[C@H]3CC[C@]12C [Example 152, (R)-4-((3S,8S,9S,10R,13R,14S,17R)-3-hydroxy-10,13-dimethyl-2,3,4,7,8,9,10,11,12,13,14,15,16,17-tetradecahydro-1H-cyclopenta[a]phenanthren-17-yl)-1-(4-hydroxy-4-(2,2,2-trifluoroethyl)piperidin-1-yl) pentan-1-one] | < 250 | 
9 | CCN(CC)C(=O)C(=O)O[C@@H](C)[C@H]1CC[C@H]2[C@@H]3CC=C4C[C@@H](O)CC[C@]4(C)[C@H]3CC[C@]12C [Example 154, (1S)-1-[(1S,3aS,3bS,7S,9aR,9bS,11aS)-7-hydroxy-9a,11a-dimethyl-1H,2H,3H,3aH,3bH,4H,6H,7H,8H,9H,9aH,9bH,10H,11H,11aH-cyclopenta[a]phenanthren-1-yl]ethyl (diethylcarbamoyl)formate] | < 250 | 
10 | COc1cccnc1CC[C@@H](C)[C@H]1CC[C@H]2[C@@H]3CC=C4C[C@@H](O)CC[C@]4(C)[C@H]3CC[C@]12C [Example 186, (1R,3aS,3bS,7S,9aR,9bS,11aR)-1-[(2R)-4-(3-methoxypyridin-2-yl)butan-2-yl]-9a,11a-dimethyl-1H,2H,3H,3aH,3bH,4H,6H,7H,8H,9H,9aH,9bH,10H,11H,11aH-cyclopenta[a]phenanthren-7-ol] | < 250 | 
11 | C[C@H](CCC(=O)N1CCC(O)(C2CCC2)CC1)[C@H]1CC[C@H]2[C@@H]3CC=C4C[C@@H](O)CC[C@]4(C)[C@H]3CC[C@]12C [Example 194, (R)-1-(4-cyclobutyl-4-hydroxypiperidin-1-yl)-4-((3S,8S,9S,10R,13R,14S,17R)-3-hydroxy-10,13-dimethyl-2,3,4,7,8,9,10,11,12,13,14,15,16,17-tetradecahydro-1H-cyclopenta[a]phenanthren-17-yl)pentan-1-one] | < 250 | 
12 | COC(=O)N1CCN(C(=O)O[C@@H](C)[C@H]2CC[C@H]3[C@@H]4CC=C5C[C@@H](O)CC[C@]5(C)[C@H]4CC[C@]23C)CC1 [Example 237, 1-(1S)-1-[(1S,3aS,3bS,7S,9aR,9bS,11aS)-7-hydroxy-9a,11a-dimethyl-1H,2H,3H,3aH,3bH,4H,6H,7H,8H,9H,9aH,9bH,10H,11H,11aH-cyclopenta[a]phenanthren-1-yl]ethyl 4-methyl piperazine-1,4-dicarboxylate] | < 250 | 
13 | CNC(=O)NC[C@@H](C)[C@H]1CC[C@H]2[C@@H]3CC=C4C[C@@H](O)CC[C@]4(C)[C@H]3CC[C@]12C [Example 239, 1-((S)-2-((3S,8S,9S,10R,13S,14S,17R)-3-hydroxy-10,13-dimethyl-2,3,4,7,8,9,10,11,12,13,14,15,16,17-tetradecahydro-1H-cyclopenta[a]phenanthren-17-yl)propyl)-3-methylurea] | 250 to 1000 | 
14 | COC(=O)NC[C@@H](C)[C@H]1CC[C@H]2[C@@H]3CC=C4C[C@@H](O)CC[C@]4(C)[C@H]3CC[C@]12C [Example 240, Methyl ((S)-2-((3S,8S,9S,10R,13S,14S,17R)-3-hydroxy-10,13-dimethyl-2,3,4,7,8,9,10,11,12,13,14,15,16,17-tetradecahydro-1H-cyclopenta[a]phenanthren-17-yl)propyl)carbamate] | 250 to 1000 | 
15 | C[C@H](OC(=O)N(C)C)[C@H]1CC[C@H]2[C@@H]3CC=C4C[C@@H](O)CC[C@]4(C)[C@H]3CC[C@]12C [Example 242, (1S)-1-[(1S,3aS,3bS,7S,9aR,9bS,11aS)-7-hydroxy-9a,11a-dimethyl-1H,2H,3H,3aH,3bH,4H,6H,7H,8H,9H,9aH,9bH,10H,11H,11aH-cyclopenta[a]phenanthren-1-yl]ethyl N,N-dimethylcarbamate] | 250 to 1000 | 
16 | CNC(=O)O[C@@H](C)[C@H]1CC[C@H]2[C@@H]3CC=C4C[C@@H](O)CC[C@]4(C)[C@H]3CC[C@]12C [Example 243, (1S)-1-[(1S,3aS,3bS,7S,9aR,9bS,11aS)-7-hydroxy-9a,11a-dimethyl-1H,2H,3H,3aH,3bH,4H,6H,7H,8H,9H,9aH,9bH,10H,11H,11aH-cyclopenta[a]phenanthren-1-yl]ethyl N-methylcarbamate] |  | < 250
17 | CNC(=O)c1ccnc(OC[C@@H](C)[C@H]2CC[C@H]3[C@@H]4CC=C5C[C@@H](O)CC[C@]5(C)[C@H]4CC[C@]23C)c1 [Example 254, 2-((S)-2-((3S,8S,9S,10R,13S,14S,17R)-3-hydroxy-10,13-dimethyl-2,3,4,7,8,9,10,11,12,13,14,15,16,17-tetradecahydro-1H-cyclopenta[a]phenanthren-17-yl)propoxy)-N-methylisonicotinamide] | < 250 | 
18 | CNC(=O)c1cccc(OC[C@@H](C)[C@H]2CC[C@H]3[C@@H]4CC=C5C[C@@H](O)CC[C@]5(C)[C@H]4CC[C@]23C)n1 [Example 256, 6-((S)-2-((3S,8S,9S,10R,13S,14S,17R)-3-hydroxy-10,13-dimethyl-2,3,4,7,8,9,10,11,12,13,14,15,16,17-tetradecahydro-1H-cyclopenta[a]phenanthren-17-yl)propoxy)-N-methylpicolinamide] | 250 to 1000 | 
19 | C[C@H](COc1ccc(CO)cn1)[C@H]1CC[C@H]2[C@@H]3CC=C4C[C@@H](O)CC[C@]4(C)[C@H]3CC[C@]12C [Example 259, (3S,8S,9S,10R,13S,14S,17R)-17-((S)-1-((5-(hydroxymethyl)pyridin-2-yl)oxy)propan-2-yl)-10,13-dimethyl-2,3,4,7,8,9,10,11,12,13,14,15,16,17-tetradecahydro-1H-cyclopenta[a]phenanthren-3-ol] | 250 to 1000 | 
20 | Cc1ccnc(OC[C@@H](C)[C@H]2CC[C@H]3[C@@H]4CC=C5C[C@@H](O)CC[C@]5(C)[C@H]4CC[C@]23C)c1 [Example 262, (1R,3aS,3bS,7S,9aR,9bS,11aS)-9a,11a-dimethyl-1-[(2S)-1-[(4-methylpyridin-2-yl)oxy]propan-2-yl]-1H,2H,3H,3aH,3bH,4H,6H,7H,8H,9H,9aH,9bH,10H,11H,11aH-cyclopenta[a]phenanthren-7-ol] | < 250 | 
21 | Cc1ccc(OC[C@@H](C)[C@H]2CC[C@H]3[C@@H]4CC=C5C[C@@H](O)CC[C@]5(C)[C@H]4CC[C@]23C)nc1 [Example 263, (3S,8S,9S,10R,13S,14S,17R)-10,13-dimethyl-17-((S)-1-((5-methylpyridin-2-yl)oxy)propan-2-yl)-2,3,4,7,8,9,10,11,12,13,14,15,16,17-tetradecahydro-1H-cyclopenta[a]phenanthren-3-ol] | 250 to 1000 | 

Reference: patent publication US20230340011A1 (Asteroid Therapeutics, priority 2022, published 2023)
